Measured values taken from patent US11945813B2, “5-substituted 4-amino-1H-benzo[c][1,2,6]thiadiazine 2,2-dioxides and formulations and uses thereof” (Firmenich Incorporated, priority 2018, dated 2024).

Molecular target: T1, T1R2/T1R3 taste receptor (Homo sapiens, UniProt Q8TE23)
T1 sequence (Q8TE23 20-839): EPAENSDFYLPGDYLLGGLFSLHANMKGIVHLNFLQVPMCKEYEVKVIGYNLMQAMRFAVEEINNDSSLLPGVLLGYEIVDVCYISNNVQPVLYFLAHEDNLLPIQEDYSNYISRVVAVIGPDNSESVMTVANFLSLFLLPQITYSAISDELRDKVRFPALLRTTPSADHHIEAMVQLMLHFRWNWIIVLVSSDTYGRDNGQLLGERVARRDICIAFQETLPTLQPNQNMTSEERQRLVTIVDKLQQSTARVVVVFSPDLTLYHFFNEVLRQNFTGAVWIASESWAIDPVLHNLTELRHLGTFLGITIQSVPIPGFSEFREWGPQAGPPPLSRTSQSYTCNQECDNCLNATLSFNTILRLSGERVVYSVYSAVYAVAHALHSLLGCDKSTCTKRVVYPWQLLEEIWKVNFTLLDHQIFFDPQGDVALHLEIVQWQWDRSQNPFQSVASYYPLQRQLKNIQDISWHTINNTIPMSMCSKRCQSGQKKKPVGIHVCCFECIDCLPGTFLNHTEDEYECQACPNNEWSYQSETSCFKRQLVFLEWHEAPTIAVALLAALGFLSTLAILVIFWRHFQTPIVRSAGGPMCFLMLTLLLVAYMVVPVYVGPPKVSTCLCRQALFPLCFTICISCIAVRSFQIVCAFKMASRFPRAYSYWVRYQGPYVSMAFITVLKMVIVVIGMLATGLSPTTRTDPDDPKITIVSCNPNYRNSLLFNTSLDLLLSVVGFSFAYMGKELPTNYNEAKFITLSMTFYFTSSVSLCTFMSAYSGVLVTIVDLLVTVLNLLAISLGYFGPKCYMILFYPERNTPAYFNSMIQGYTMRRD
T1 sequence (Q7RTX0 21-852 partner): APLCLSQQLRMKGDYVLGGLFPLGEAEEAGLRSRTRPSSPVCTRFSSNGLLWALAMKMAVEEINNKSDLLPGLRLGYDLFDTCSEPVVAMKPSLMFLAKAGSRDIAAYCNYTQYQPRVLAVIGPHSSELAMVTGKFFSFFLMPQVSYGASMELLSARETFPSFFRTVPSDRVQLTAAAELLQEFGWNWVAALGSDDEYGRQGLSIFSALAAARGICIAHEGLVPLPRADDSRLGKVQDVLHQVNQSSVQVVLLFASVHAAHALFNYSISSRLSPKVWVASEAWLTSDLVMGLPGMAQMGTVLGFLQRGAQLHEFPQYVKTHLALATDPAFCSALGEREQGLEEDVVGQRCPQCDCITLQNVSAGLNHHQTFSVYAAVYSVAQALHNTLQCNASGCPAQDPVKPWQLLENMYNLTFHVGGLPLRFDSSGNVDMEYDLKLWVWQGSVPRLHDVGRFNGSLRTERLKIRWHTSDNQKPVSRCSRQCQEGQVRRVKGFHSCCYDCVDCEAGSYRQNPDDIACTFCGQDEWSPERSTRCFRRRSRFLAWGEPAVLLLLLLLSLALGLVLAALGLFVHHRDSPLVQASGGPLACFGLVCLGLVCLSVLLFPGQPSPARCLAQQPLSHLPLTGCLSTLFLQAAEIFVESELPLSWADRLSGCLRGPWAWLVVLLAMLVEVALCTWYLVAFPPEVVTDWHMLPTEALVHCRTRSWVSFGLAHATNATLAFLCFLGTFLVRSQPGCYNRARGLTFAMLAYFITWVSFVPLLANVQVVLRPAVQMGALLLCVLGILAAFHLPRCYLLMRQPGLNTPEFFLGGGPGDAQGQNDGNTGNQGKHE
Test: Receptor-based assay: sweetener EC50 alone and with test compound (enhancement ratio)
Format: cell-based
Conditions: for Sucralose Enhancement EC50 Ratio: sweetener sucralose; for Sucrose Enhancement EC50 Ratio: sweetener sucrose; for Fructose Enhancement EC50 Ratio: sweetener fructose
In short: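 Sucrose, sucralose or fructose EC50 measured on human T1R2/T1R3, alone and with 3, 10 or 50 μM test compound. Enhancement is the EC50 ratio without/with compound, binned A >20, B 10-20, C >1 to <10.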

Compound	Sucralose Enhancement EC50 Ratio (10 μM test compound)	Sucrose Enhancement EC50 Ratio (3 μM test compound)	Sucrose Enhancement EC50 Ratio (10 μM test compound)	Fructose Enhancement EC50 Ratio (10 μM test compound)	Fructose Enhancement EC50 Ratio (50 μM test compound)	Sucralose Enhancement EC50 Ratio (50 μM test compound)	Sucrose Enhancement EC50 Ratio (50 μM test compound)
CCN(CC)C(=O)c1cccc(N2CCC[C@H](COc3cccc4c3C(N)=NS(=O)(=O)N4)C2)n1 [Compound 411]	B (A “B” value indicates an enhancement ratio from 10 to 20)	C (A “C” value indicates an enhancement ratio greater than 1 and less than 10)	C (A “C” value indicates an enhancement ratio greater than 1 and less than 10)				
CCCNC(=O)c1ccnc(N2CCC[C@H](COc3cccc4c3C(N)=NS(=O)(=O)N4)C2)c1 [Compound 602]	A (An “A” value indicates an enhancement ratio of greater than 20)	C (A “C” value indicates an enhancement ratio greater than 1 and less than 10)	B (A “B” value indicates an enhancement ratio from 10 to 20)	C (A “C” value indicates an enhancement ratio greater than 1 and less than 10)	C (A “C” value indicates an enhancement ratio greater than 1 and less than 10)	A (An “A” value indicates an enhancement ratio of greater than 20)	
NC1=NS(=O)(=O)Nc2cccc(OC[C@H]3CCCN(c4ccc(C(=O)NCCO)cn4)C3)c21 [Compound 503]	A (An “A” value indicates an enhancement ratio of greater than 20)	C (A “C” value indicates an enhancement ratio greater than 1 and less than 10)	C (A “C” value indicates an enhancement ratio greater than 1 and less than 10)				C (A “C” value indicates an enhancement ratio greater than 1 and less than 10)
NC1=NS(=O)(=O)Nc2cccc(OC[C@H]3CCCN(c4cc(C(=O)O)ccn4)C3)c21 [Compound 303]	C (A “C” value indicates an enhancement ratio greater than 1 and less than 10)	C (A “C” value indicates an enhancement ratio greater than 1 and less than 10)	C (A “C” value indicates an enhancement ratio greater than 1 and less than 10)		C (A “C” value indicates an enhancement ratio greater than 1 and less than 10)	A (An “A” value indicates an enhancement ratio of greater than 20)	C (A “C” value indicates an enhancement ratio greater than 1 and less than 10)
Cc1cnc(N2CCC[C@H](COc3cccc4c3C(N)=NS(=O)(=O)N4)C2)nc1 [Compound 304]	A (An “A” value indicates an enhancement ratio of greater than 20)	C (A “C” value indicates an enhancement ratio greater than 1 and less than 10)	C (A “C” value indicates an enhancement ratio greater than 1 and less than 10)	C (A “C” value indicates an enhancement ratio greater than 1 and less than 10)	C (A “C” value indicates an enhancement ratio greater than 1 and less than 10)	A (An “A” value indicates an enhancement ratio of greater than 20)	C (A “C” value indicates an enhancement ratio greater than 1 and less than 10)
CNC(=O)c1cccc(N2CCC[C@H](COc3cccc4c3C(N)=NS(=O)(=O)N4)C2)n1 [Compound 401]	A (An “A” value indicates an enhancement ratio of greater than 20)	C (A “C” value indicates an enhancement ratio greater than 1 and less than 10)	B (A “B” value indicates an enhancement ratio from 10 to 20)			A (An “A” value indicates an enhancement ratio of greater than 20)	C (A “C” value indicates an enhancement ratio greater than 1 and less than 10)
CCNC(=O)c1ccnc(N2CCC[C@H](COc3cccc4c3C(N)=NS(=O)(=O)N4)C2)c1 [Compound 601]		C (A “C” value indicates an enhancement ratio greater than 1 and less than 10)	C (A “C” value indicates an enhancement ratio greater than 1 and less than 10)	C (A “C” value indicates an enhancement ratio greater than 1 and less than 10)	C (A “C” value indicates an enhancement ratio greater than 1 and less than 10)		A (An “A” value indicates an enhancement ratio of greater than 20)
NC1=NS(=O)(=O)Nc2cccc(OC[C@H]3CCCN(c4ccc(C(=O)N5CCOCC5)cn4)C3)c21 [Compound 514]	A (An “A” value indicates an enhancement ratio of greater than 20)	C (A “C” value indicates an enhancement ratio greater than 1 and less than 10)	C (A “C” value indicates an enhancement ratio greater than 1 and less than 10)	C (A “C” value indicates an enhancement ratio greater than 1 and less than 10)	C (A “C” value indicates an enhancement ratio greater than 1 and less than 10)	B (A “B” value indicates an enhancement ratio from 10 to 20)	C (A “C” value indicates an enhancement ratio greater than 1 and less than 10)
COCCNC(=O)c1cccc(N2CCC[C@H](COc3cccc4c3C(N)=NS(=O)(=O)N4)C2)n1 [Compound 405]	B (A “B” value indicates an enhancement ratio from 10 to 20)	C (A “C” value indicates an enhancement ratio greater than 1 and less than 10)	C (A “C” value indicates an enhancement ratio greater than 1 and less than 10)	C (A “C” value indicates an enhancement ratio greater than 1 and less than 10)			
Cc1cc(C)nc(N2CCC[C@H](COc3cccc4c3C(N)=NS(=O)(=O)N4)C2)n1 [Compound 300, (S)-4-amino-5-((1-(4,6-dimethylpyrimidin-2-yl)piperidin-3-yl)methoxy)-1H-benzo[c][1,2,6]thiadiazine 2,2-dioxide]	A (An “A” value indicates an enhancement ratio of greater than 20)	C (A “C” value indicates an enhancement ratio greater than 1 and less than 10)	C (A “C” value indicates an enhancement ratio greater than 1 and less than 10)			A (An “A” value indicates an enhancement ratio of greater than 20)	C (A “C” value indicates an enhancement ratio greater than 1 and less than 10)
Cc1cc(C(=O)O)nc(N2CCC[C@H](COc3cccc4c3C(N)=NS(=O)(=O)N4)C2)n1 [Compound 307]	A (An “A” value indicates an enhancement ratio of greater than 20)	C (A “C” value indicates an enhancement ratio greater than 1 and less than 10)	C (A “C” value indicates an enhancement ratio greater than 1 and less than 10)	C (A “C” value indicates an enhancement ratio greater than 1 and less than 10)	C (A “C” value indicates an enhancement ratio greater than 1 and less than 10)	A (An “A” value indicates an enhancement ratio of greater than 20)	C (A “C” value indicates an enhancement ratio greater than 1 and less than 10)
